The results in this text go back to patent US20230141284A1, “CANCER THERAPEUTIC METHOD” (ONO PHARMACEUTICAL CO., LTD., priority 2020, published 2023).

In data set [1] the test system is colon cancer cell line MC38. In words: Compound A and anti-PD-1 antibody 4H2 in MC38 tumor-bearing mouse model (Example 21). Type of data set: in vivo, mice (C57/BL6). The procedure:
Compound A was administered intravenously once 8 days after transplantation, and the anti-PD-1 antibody 4H2 was administered intraperitoneally 4 times every 6 days since 8 days after transplantation. • Vehicle (n=9), • Compound A (0.1 mg/kg; n=9), • Anti-PD-1 antibody 4H2 (10 mg/kg (but 20 mg/kg only in the first dosage); n=9), and • Compound A (0.1 mg/kg) and anti-PD-1 antibody 4H2 (10 mg/kg (but 20 mg/kg only in the first dosage); n=9).
FIGS. 6 and 7 show results thereof.

Data set [2] is described as follows: Conversion of a prodrug to its active body (Compound B) in mouse plasma. The conditions noted are these: 1 μmol/L, 37° C., 60 minutes. Type of data set: in vitro ADME. Here is the method:
(§1) The solutions of the example compounds in Table 2 below (50 μmol/L, 50% acetonitrile with 5% DMSO) were added to plasma (245 μL), respectively, such that the final concentrations thereof become 1 μmol/L. After keeping them the temperature at 37° C. for 60 minutes, 40 μL of the reaction solutions were taken therefrom, and added to 200 μL of acetonitrile/ethanol (7:3) containing Candesartan (internal standard).
(§2) The concentration of the compound prepared in Example 3 (Compound B) in the plasma resulting from the above reaction was analyzed by LC-MS/MS according to the following method.
(§3) The whole amount was transferred to a filter plate for protein removal and filtered by suction, and the filtrate thereof was diluted 2-fold with water. [LC column] Shim-pack XR-ODSII 2.0 mm ID×75 mm (Shimadzu Corporation) [LC condition] Column temperature: 40° C. Mobile phase: A: 0.2% formic acid in 5 mM ammonium acetate solution; and
(§4) [MS conditions] Electrospray, positive mode, multiple reaction monitoring; MS monitor ion: Compound B: m/z353.0→m/z311.2, DP: 80, CE: 35; and Candesartan (internal standard): m/z309.1→m/z163.0, DP: 71, CE: 21.
(§5) A regression formula was calculated from the peak area ratio (peak area of Compound B/peak area of Candesartan) of the real sample and the standard sample for the calibration curve in the same matrix, and the peak area ratio of the real sample was substituted into the regression formula to calculate the quantitative value. 60 minutes later, the concentration of Compound B in the sample was compared, and the conversion rate (%) thereof was calculated using the following formula:
(§6) Conversion rate (%)=Concentration of Compound B in the sample after 60 minutes (μmol/L)×100

Data set [3] deals with melanoma cell line B16F10. In words: Combination experiments in subcutaneously melanoma cell line B16F10 tumor-bearing mice model (Example 23). The note with it: until Day 30. Type of data set: in vivo, mice (C57/BL6). Here is the method: • Vehicle and control antibody (rIgG1) (n=8 or 6), • Compound A (0.3 mg/kg) and control antibody (rIgG1) (n=6), • Anti-PD-1 antibody 4H2 (10 mg/kg (but 20 mg/kg only in the first dose only); n=6), and • Compound A (0.3 mg/kg) and anti-PD-1 antibody 4H2 (10 mg/kg (but 20 mg/kg only for the first dosage)) (n=6).
In the Combination Experiment 1, Compound A was administered once 10 days after transplantation while the anti-PD-1 antibody 4H2 and control antibody were administered 4 times every 6 days since 10 days after transplantation, respectively.
• Vehicle and control antibody (rIgG1) (n=8 or 6), • Compound A (0.3 mg/kg) and control antibody (rIgG1) (n=6), • Anti-VEGFR2 antibody DC101 (BioXCell) (10 mg/kg; n=6), and • Compound A (0.3 mg/kg) and anti-VEGFR2 antibody DC101 (10 mg/kg) (n=6).
In the Combination Experiment 2, Compound A was administered 4 times every 7 days since 10 days after transplantation while anti-VEGFR2 antibody DC101 and control antibody were administered 7 times every 3 or 4 days once 10 days after transplantation, respectively.
Vehicle and Compound A were administered intravenously while control antibody, anti-PD-1 antibody, and anti-VEGFR2 antibody were administered intraperitoneally, respectively.
FIGS. 9 and 10 show results thereof.

Data set [4] has as its system human acute myeloid leukemia cell line MV4-11. Briefly: Anti-tumor effect in subcutaneously tumor model bearing human acute myeloid leukemia cell line MV4-11. Type of data set: in vivo. The note with it: dosages of 1.0 mg/kg and 3.0 mg/kg; immunodeficient mice; until Day 28. The procedure:
They were grouped based on tumor volume 6 days after transplantation, and Compound A (0.3, 1.0, and 3.0 mg/kg, respectively; n=8) and Vehicle (n=8) were administered to the subcutaneously tumor-bearing mice, respectively.

Data set [5] is described as follows: Conversion of a prodrug to its active body (Compound B) in human plasma. Type of data set: in vitro ADME. The note with it: 1 μmol/L, 37° C., 60 minutes. The procedure:
as §1, §2, §3, §4, §5, §6

The subject of data set [6] is colon cancer cell line MC38. Briefly: Anti-tumor effect in subcutaneously colon cancer cell line MC38 tumor-bearing mouse model (Example 17). Type of data set: in vivo, mice (C57/BL6). The note with it: 3 mg/kg, administered 7 days after transplantation, measured until Day 26. The procedure: Seven days after transplantation, the subcutaneously MC38 tumor-bearing mice were grouped based on tumor volume, and the Vehicle group (n=8) and group to which the compound shown in Example 1 (3 mg/kg, n=6) was administered were set. The changes in tumor volume were continuously measured until 26 days after transplantation (Day 26). The tumor volume was calculated by the following formula:
[Tumor volume (mm^3)]=[major axis (mm)]×[minor axis (mm)]^2×0.5

A further data set concerns the target T1, IDO1 (Homo sapiens, UniProt P14902).
T1 construct: His-tag; purchased BPS Bioscience
Briefly: IDO1 inhibitory activity (IDO1 Fluorogenic Inhibitor Screening Assay Kit). Type of data set: biochemical. The note with it: compound solutions of 0.6 to 200 μmol/L added. The procedure: The evaluation of IDO1 inhibitory activity was carried out using the IDO1 Fluorogenic Inhibitor Screening Assay Kit (BPS Bioscience). Specifically, IDO1 Fluorogenic Reaction Solution was dissolved, of which 180 μL were added to each well. Then, 10 μL of the compounds at the respective concentrations of 0.6, 2, 6, 20, 60 and 200 μmol/L were added thereto. Further, after adding 10 μL of IDO1 His-Tag solution thereto, and the mixture thereof was incubated at room temperature for 1 hour, and then 20 μL of Fluorescence Solution was added thereto, and the mixture thereof was incubated at 37° C. for 4 hours. After standing them at room temperature for 10 minutes, the fluorescence was measured using a microplate reader (excitation: 400 nm, emission: 510 nm).

The next data set relates to IRF pathway. In words: Verification of STING agonistic activity (IRF pathway in cells of PCT/EP2017/59781). The conditions noted are these: cells described in PCT/EP2017/59781, about 24 hours incubation. Type of data set: cell-based. Here is the method:
The cells described at lines 37-39 on page 18 in the publication of PCT application with application number PCT/EP2017/59781 were suspended in RPMI medium to prepare 2×10^6 cells/mL cell suspension. 50 μL of cell suspensions were dispensed into a 96-well plate, to which 50 μL of 6 to 20,000 nM compound solutions were further added, followed by incubation at 37° C. for about 24 hours. 10 μL of the cell suspensions were collected from each well, which were mixed with 50 μL of Quanti-luc (Invivogen), and then the activity of the IRF pathway was measured by detecting luminescence using a microplate reader.

The test system of data set [7] is BTK, KDR, each subtype of PKCa to t, each CDK of CDK2 to 9, FAK, TIE2, RAF1 and BRAF. Briefly: Inhibitory activity against various kinases (mobility shift, LabChip). Type of data set: biochemical. The conditions noted are these: 4 μmol/L test substance solution (4 times the final concentration). Here is the method: 4 μmol/L of the test substance solution (the compound pertaining to the present invention produced in Example 1) (at 4 times the final concentration) was prepared by dissolving it to the assay buffer (20 mmol/L HEPES, 0.01% Triton X-100, 1 mmol/L DTT, pH 7.5). 4 μmol/L of the substrate/ATP/metal solution (at 4 times the final concentration) was prepared by dissolving it to the kit buffer (20 mmol/L HEPES, 0.01% Triton X-100, 5 mmol/L DTT, pH 7.5). Various kinase solutions at twice the final concentration were prepared by dissolving them to the assay buffer. 5 μL of the test substance solution, 5 μL of the substrate/ATP/metal solution and 10 μL of the kinase solution were mixed in wells of a polypropylene 384-well plate, and the mixture thereof was reacted at room temperature for 1 to 5 hours. The reaction was stopped by adding 70 μL of the termination buffer (QuickScout Screening Assist MSA; Carna Biosciences). The substrate peptide and phosphorylated peptide in the reaction solution were separated and quantified by LabChip system (Perkin Elmer). The kinase reaction was evaluated based on the product ratio (P/(P+S)) calculated from the peak height (S) of the substrate peptide and the peak height (P) of the phosphorylated peptide. The various kinases used in this evaluation are as follows: BTK, KDR, each subtype of PKCa to t, each CDK of CDK2 to 9, FAK, TIE2, RAF1 and BRAF.

Structures are written as SMILES.

T1 sequence (P14902 whole entry): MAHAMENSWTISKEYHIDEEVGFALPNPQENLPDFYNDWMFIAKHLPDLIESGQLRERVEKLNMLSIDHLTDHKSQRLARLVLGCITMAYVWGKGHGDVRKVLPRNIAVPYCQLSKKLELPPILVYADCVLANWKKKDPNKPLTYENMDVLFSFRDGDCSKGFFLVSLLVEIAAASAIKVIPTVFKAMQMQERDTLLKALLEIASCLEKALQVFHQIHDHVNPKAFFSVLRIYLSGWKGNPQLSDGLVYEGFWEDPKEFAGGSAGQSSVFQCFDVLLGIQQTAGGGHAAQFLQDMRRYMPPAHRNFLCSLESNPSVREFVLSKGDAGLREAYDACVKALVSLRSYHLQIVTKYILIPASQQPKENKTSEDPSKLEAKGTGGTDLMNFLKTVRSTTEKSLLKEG

With `CC(=O)c1cc(-c2ncc(-c3cnn(COP(=O)(O)O)c3)c3onc(N)c23)c(F)cc1N` [Example 10(1), (4-(4-(5-acetyl-4-amino-2-fluorophenyl)-3-aminoisoxazolo[4,5-c]pyridin-7-yl)-1H-pyrazol-1-yl)methyl dihydrogen phosphate], the tumor-reducing effect result in data set [1] (Compound A 0.1 mg/kg combined with anti-PD-1 antibody 4H2, 28 days after transplantation) is on record as “showed the tumor-reducing effect”. In addition, the “anti-tumor effect observed with anti-PD-1 antibody alone” value in [1] (Compound A 0.1 mg/kg i.v. once combined with anti-PD-1 antibody 4H2 10 mg/kg (20 mg/kg first dosage)) was “enhanced”. The “number with complete tumor remission” value in [1] (combination of Compound A (0.1 mg/kg) and the anti-PD-1 antibody) is recorded as 5 out of 9. In [2], the “Plasma conversion rate Mouse” value was “+ + +”. The “anti-tumor effect of anti-VEGFR2 antibody” value in [3] (Compound A 0.3 mg/kg 4 times every 7 days combined with anti-VEGFR2 antibody DC101 10 mg/kg) was “enhanced”. Also, the “anti-tumor effect of anti-PD-1 antibody” value in data set [3] (Compound A 0.3 mg/kg once combined with anti-PD-1 antibody 4H2 10 mg/kg (20 mg/kg first dosage)) is given as “enhanced”. In data set [4], the “tumor growth (tumor volume)” value is “suppressed tumor growth”. In addition, the “Plasma conversion rate Human” value in data set [5] is recorded as “+ + +”.

As for `COC(=O)c1cc(-c2ncc(-c3cn[nH]c3)c3onc(N)c23)c(F)cc1N` [Example 1, methyl 2-amino-5-(3-amino-7-(1H-pyrazol-4-yl)isoxazolo[4,5-c]pyridin-4-yl)-4-fluorobenzoate], the “tumor growth (tumor volume)” value in [6] was “almost completely suppressed the tumor growth”. The IDO1 inhibitory activity result on IDO1 is listed as “no IDO1 inhibitory activity”. Besides, in the data set on IRF pathway, the IRF activating effect result was “no IRF activating effect”. Besides, the “inhibitory activity against various kinases” value in data set [7] is given as “no significantly inhibit activities”.
